Assay type in all cases: biochemical
In test [1] the target is T1, CDK2^K89V/cyclin A (Homo sapiens, UniProt P24941, K89V).
T1 construct: GST (N, cleaved yes); made in house; host or cells: Escherichia coli; phosphorylated in vitro by GST-CAK
Briefly: Bandshift kinase assay after incubation and dialysis, mutant. As to the method: The bandshift experiment was repeated after incubating CDK2^K88E/cyclin A and CDK2^K89V/cyclin A with NU6300, NU6310, or DMSO followed by dialysis to remove unbound inhibitor (Figure S2G).
Figure S2, Related to Figure 3. Identification of the site of CDK2 modification by NU6300. (A-G) Single site CDK2 mutants CDK2D86A, CDK2K88E, and CDK2K89V identify the site of CDK2 modification by NU6300. These mutations change the CDK2 sequence to that of CDK7 and are known not to disrupt the CDK2 fold. Mass spectra of CDK2 mutants: […]
(G) Protein kinase activity of authentic CDK2 and single site CDK2 mutants following incubation with NU6300 or NU6310. Samples were taken at the indicated number of minutes after initiation of the reaction. Note that compared to authentic CDK2, the single site Lys88 and Lys89 mutants have a slower rate of reaction (Compare LHS panels). This drop in activity was expected because whereas the wild type protein was produced by co-expression with S. cerevisiae […]
the mutant proteins were activated by S. cerevisiae CAK1 phosphorylation in vitro– a relatively inefficient process as judged from the results of ESI-MS (Table S1). (H) NU6300 […]
NU6300 carbon atoms are coloured green. Rb, retinoblastoma protein, Phospho-Rb, […]
Protein expression and purification
Site-directed mutagenesis of CDK2 was performed using the QuikChange II kit (Stratagene) following the manufacturer’s instructions and verified by DNA sequencing.
Wild-type CDK2 phosphorylated at Thr160, untagged human cyclin A2 (residues 174-432), S. cerevisiae GST–CAK, GST–3C-protease and GST–pRb (residues 792–928) were expressed and purified as previously described (Brown et al., 1999a; Brown et al., 1999b; Welburn and Endicott, 2005). […]
CDK2/cyclin A (200 µM) was incubated overnight with 1 mM inhibitor or DMSO, and then dialysed for 8 h with regular replacement of dialysis buffer into HEPES-buffered saline (50 mM HEPES, pH 7.5, 250 mM NaCl, 0.02% MTG). […] Reactions were stopped by addition of SDS-PAGE loading buffer and analyzed by SDS-PAGE. […]

Test [2] deals with DDR2 (Homo sapiens, UniProt Q16832). Briefly: Dundee protein kinase screen. To be noted: DDR2, 1µM; read-out: %Remaining activity at 1µM NU6300. As to the method: (§1) Prior to determining its cellular activity, we carried out a screen to assess its selectivity against a panel of 131 protein kinases under conditions that would not distinguish between a reversible or irreversible mode of action. […] These 13 kinases and 29 additional kinases, selected for their known sensitivity to other inhibitors within the purine series, were then tested in a modified screening format in which the assay was repeated following a 4-hr pre-incubation (Table S3B). […] However, conformational flexibility around the active site may promote such an interaction with a residue from another part of the structure ([Martin et al., 2012]).
Sequence of DDR2 (Q16832 22-855): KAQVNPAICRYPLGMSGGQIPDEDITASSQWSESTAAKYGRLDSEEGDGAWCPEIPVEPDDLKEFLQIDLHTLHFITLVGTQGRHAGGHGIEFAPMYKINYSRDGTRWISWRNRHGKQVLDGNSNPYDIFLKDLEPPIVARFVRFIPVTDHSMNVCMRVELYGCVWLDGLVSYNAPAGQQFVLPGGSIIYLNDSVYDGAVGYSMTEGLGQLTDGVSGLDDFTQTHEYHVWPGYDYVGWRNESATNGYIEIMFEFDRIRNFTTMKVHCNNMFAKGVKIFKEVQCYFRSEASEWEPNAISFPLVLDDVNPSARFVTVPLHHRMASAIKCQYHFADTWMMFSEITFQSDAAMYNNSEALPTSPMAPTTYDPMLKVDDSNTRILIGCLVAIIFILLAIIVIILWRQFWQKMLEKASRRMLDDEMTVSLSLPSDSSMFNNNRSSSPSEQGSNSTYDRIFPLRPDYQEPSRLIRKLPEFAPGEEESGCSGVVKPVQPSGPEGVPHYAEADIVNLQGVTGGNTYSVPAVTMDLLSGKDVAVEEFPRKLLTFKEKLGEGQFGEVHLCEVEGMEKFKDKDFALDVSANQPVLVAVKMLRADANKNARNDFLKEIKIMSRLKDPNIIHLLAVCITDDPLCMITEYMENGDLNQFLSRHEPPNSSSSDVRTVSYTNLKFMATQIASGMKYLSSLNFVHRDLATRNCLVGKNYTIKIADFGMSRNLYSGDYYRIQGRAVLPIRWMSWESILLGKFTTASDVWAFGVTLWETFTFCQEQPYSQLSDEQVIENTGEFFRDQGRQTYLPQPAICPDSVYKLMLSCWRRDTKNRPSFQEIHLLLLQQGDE
(§2) Table S3, Related to Figure 4. NCL-0006300 protein kinase selectivity. (A) NU6300 was tested at a single concentration of 1µM against 131 protein kinases present in a Dundee protein kinase screen (Bain et al., 2007). Values given are % activity remaining and are the average of duplicate measurements: 0-25% (red), 26-50% (yellow), 51-80% (black) and above 81% (green). The kinase domain sequences (as defined by UniProt) of […]
(§3) have a lysine residue at a position close to CDK2 Lys88 or Lys89. However, in the structure of tyrosine-protein kinase BTK (PDB ID: 3GEN) the residue equivalent to CDK2 Asp86 is Cys481 and therefore there is the potential for a covalent adduct to be formed through this side chain. […]

In test [3] the target is EPH-B4 (Homo sapiens, UniProt P54760). Briefly: Dundee protein kinase screen. To be noted: EPH-B4, 1µM; read-out: %Remaining activity at 1µM NU6300. As to the method: as §1, §2, §3
Sequence of EPH-B4 (P54760 16-987): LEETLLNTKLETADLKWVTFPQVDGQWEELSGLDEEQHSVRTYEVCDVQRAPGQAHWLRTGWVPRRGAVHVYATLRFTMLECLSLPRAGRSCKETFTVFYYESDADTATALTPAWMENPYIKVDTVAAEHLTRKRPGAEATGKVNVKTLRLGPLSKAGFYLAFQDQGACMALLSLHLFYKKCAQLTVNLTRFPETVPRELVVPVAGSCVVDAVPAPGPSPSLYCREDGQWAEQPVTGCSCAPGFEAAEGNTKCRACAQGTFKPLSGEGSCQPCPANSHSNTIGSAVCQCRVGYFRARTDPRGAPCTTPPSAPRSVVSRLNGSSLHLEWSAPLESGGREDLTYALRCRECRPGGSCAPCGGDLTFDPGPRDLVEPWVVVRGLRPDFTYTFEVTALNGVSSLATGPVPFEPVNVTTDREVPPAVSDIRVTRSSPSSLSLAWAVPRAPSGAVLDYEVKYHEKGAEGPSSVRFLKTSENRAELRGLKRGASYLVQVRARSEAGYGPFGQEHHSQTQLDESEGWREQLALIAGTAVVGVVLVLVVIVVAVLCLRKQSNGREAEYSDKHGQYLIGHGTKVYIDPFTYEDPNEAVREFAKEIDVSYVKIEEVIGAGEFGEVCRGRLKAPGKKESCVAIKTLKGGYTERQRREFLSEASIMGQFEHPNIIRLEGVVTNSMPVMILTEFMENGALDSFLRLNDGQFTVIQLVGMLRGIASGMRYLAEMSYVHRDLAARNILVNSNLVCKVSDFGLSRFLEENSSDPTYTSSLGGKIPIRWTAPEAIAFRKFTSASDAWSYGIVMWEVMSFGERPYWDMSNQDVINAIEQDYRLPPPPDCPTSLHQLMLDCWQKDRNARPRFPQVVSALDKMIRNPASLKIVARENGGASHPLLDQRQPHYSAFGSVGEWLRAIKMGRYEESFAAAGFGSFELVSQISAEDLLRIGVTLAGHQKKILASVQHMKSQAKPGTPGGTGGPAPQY
For test [4], the target named is ERK2 (Homo sapiens, UniProt P28482). Briefly: Dundee protein kinase screen. To be noted: ERK2, 1µM; read-out: %Remaining activity at 1µM NU6300. As for the experimental part: as §1, §2, §3
Sequence of ERK2 (P28482 whole entry): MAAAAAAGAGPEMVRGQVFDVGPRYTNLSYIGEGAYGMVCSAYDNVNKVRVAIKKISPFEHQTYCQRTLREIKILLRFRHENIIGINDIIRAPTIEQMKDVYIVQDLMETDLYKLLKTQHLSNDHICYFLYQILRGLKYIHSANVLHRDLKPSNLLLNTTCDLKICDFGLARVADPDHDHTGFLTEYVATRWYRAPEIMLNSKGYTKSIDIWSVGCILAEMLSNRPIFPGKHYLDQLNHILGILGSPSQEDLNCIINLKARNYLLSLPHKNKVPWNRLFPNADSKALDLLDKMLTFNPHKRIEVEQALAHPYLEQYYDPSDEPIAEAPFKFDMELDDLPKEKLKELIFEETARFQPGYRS
For test [5], the target named is IKKe (Homo sapiens, UniProt Q14164). Briefly: Dundee protein kinase screen. To be noted: read-out: %Remaining activity at 1µM NU6300. As for the experimental part:
as §1, §2, §3

The target in test [6] is Lck (Homo sapiens, UniProt P06239). Briefly: Dundee protein kinase screen. To be noted: read-out: %Remaining activity at 1µM NU6300. As for the experimental part: as §1, §2, §3
Sequence of Lck (P06239 whole entry): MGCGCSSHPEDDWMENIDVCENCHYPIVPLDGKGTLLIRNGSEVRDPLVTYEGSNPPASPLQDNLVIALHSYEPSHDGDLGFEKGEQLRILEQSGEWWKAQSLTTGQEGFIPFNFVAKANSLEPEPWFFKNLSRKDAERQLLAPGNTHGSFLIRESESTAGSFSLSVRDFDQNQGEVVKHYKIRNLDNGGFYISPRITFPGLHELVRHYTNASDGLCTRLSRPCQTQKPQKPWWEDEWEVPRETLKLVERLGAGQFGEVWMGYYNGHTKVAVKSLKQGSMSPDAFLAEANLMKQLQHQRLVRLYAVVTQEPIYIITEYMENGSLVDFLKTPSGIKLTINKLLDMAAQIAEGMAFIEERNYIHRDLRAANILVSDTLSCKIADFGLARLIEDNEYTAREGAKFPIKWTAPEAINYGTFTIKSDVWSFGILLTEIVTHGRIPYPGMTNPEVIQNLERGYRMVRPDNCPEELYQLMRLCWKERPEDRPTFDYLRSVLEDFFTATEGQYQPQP
Test [7] addresses MLK1 (Homo sapiens, UniProt P80192). Briefly: Dundee protein kinase screen. To be noted: MLK1, 1µM; read-out: %Remaining activity at 1µM NU6300. As to the method:
as §1, §2, §3

The results in this text go back to publication PMC4579270, “Identification and Characterization of an Irreversible Inhibitor of CDK2” (Chemistry & Biology, 2015).

Sequence of IKKe (Q14164 whole entry): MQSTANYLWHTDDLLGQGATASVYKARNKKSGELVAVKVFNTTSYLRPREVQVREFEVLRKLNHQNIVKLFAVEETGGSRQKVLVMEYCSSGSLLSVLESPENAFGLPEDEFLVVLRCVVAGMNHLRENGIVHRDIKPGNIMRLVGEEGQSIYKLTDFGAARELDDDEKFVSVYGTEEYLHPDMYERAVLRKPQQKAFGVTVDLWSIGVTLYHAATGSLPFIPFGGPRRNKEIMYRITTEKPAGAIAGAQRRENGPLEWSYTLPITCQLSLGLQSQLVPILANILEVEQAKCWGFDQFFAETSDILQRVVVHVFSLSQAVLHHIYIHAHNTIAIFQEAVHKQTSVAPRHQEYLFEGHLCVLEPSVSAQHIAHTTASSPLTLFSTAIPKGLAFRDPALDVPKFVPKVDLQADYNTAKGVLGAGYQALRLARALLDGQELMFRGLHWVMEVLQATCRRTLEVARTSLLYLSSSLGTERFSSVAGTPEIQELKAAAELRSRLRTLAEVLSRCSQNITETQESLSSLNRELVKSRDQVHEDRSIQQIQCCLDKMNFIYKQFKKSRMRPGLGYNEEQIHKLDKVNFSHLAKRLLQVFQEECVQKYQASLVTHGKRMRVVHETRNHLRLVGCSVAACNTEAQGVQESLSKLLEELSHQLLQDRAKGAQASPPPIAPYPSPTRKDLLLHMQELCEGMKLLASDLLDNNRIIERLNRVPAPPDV
Sequence of MLK1 (P80192 whole entry): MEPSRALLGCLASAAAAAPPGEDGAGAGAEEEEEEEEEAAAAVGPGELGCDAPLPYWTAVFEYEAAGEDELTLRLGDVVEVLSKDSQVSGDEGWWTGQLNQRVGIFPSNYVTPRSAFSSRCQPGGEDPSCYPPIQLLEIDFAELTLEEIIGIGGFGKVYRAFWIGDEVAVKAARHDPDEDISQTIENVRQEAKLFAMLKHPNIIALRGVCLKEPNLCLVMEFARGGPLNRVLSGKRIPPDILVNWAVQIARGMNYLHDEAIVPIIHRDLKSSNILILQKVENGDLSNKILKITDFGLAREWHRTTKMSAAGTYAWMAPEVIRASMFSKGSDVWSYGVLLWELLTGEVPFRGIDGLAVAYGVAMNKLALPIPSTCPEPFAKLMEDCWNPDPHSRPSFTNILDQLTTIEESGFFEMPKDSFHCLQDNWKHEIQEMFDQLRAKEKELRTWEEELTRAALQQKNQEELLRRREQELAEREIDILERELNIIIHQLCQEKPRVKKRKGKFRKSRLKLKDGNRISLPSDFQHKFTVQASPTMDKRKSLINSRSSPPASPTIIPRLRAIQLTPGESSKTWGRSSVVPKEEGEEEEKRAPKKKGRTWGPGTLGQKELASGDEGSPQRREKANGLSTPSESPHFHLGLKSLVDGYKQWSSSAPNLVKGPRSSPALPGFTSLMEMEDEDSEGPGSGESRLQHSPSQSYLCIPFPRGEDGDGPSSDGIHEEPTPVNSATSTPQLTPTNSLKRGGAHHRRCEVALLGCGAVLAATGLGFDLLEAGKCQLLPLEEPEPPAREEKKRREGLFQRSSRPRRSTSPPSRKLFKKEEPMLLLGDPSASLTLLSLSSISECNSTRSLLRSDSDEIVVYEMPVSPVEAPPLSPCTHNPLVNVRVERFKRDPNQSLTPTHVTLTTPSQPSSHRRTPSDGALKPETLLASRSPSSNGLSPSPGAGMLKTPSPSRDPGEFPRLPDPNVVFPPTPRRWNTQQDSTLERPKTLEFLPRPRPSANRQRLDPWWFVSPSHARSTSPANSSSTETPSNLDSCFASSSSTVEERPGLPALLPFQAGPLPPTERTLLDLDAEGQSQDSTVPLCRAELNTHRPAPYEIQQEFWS

For the compound `C=CS(=O)(=O)c1ccc(Nc2nc(OCC3CCCCC3)c3nc[nH]c3n2)cc1` [NU6300, 6-(cyclohexylmethoxy)-N-(4-(vinylsulfonyl)phenyl)-9H-purin-2-amine], in test [1], the “CDK2 activity against Rb after incubation with inhibitor and dialysis” value is on record as “recovered activity”. Also, the remaining activity at 1 µM in test [2] was found to be 60%; in test [3], 90%; in test [4], 73%; in test [5] it was 68%; in test [6] it was 42%; in test [7], 8%.

Regarding `CCS(=O)(=O)c1ccc(Nc2nc(OCC3CCCCC3)c3nc[nH]c3n2)cc1` [NU6310, 6-(cyclohexylmethoxy)-N-(4-(ethylsulfonyl)phenyl)-9H-purin-2-amine], in test [1], the “CDK2 activity against Rb after incubation with inhibitor and dialysis” value is listed as “recovered their activity”.

What is called remaining activity is the signal under treatment as a percentage of the control signal.
